Consider 53 compounds from US9090600B2, “Fungicidal 4-substituted-3-{phenyl[(heterocyclylmethoxy)imino]methyl}-1,2,4-oxadizol-5(4H)-one derivatives” (BAYER INTELLECTUAL PROPERTY GMBH, priority 2011, dated 2015).

In one series the test system is Phytophthora infestans. In kind it is in vivo. The conditions noted are these: tomato plants, spray, 500 ppm, grading 5 days after contamination.
For series [1] the following is noted: pH 2.7.

Marks after values point to notes of the source that are not given here.

In the case of `CC(C)COC(=O)Nc1cccc(CO/N=C(/c2ccccc2)c2noc(=O)n2C)n1` [Example 225], the Eff. % in the series on Phytophthora infestans is recorded as 99%. Further, in series [1], the LogP (usually the decadic logarithm of the partition coefficient of the neutral form, usually between octanol and water) is 4.01 [a].

`Cc1ccc(OCC(=O)Nc2nc(CO/N=C(/c3ccccc3)c3noc(=O)n3C)cs2)cc1` [Example 229] yielded an Eff. % with Phytophthora infestans of 100%. Further, the LogP in series [1] is 3.8 [a].

On to `CC(Oc1ccccc1)C(=O)Nc1cccc(CO/N=C(/c2ccccc2)c2noc(=O)n2C)n1` (stereo not shown) [Example 232], for which, in the series with Phytophthora infestans, the Eff. % is 100%. For the same compound, the LogP in series [1] was 3.96 [a].

As for `CC(C)=CCCC(C)CC(=O)Nc1cccc(CO/N=C(/c2ccccc2)c2noc(=O)n2C)n1` (stereo not shown) [Example 235], the Eff. % in the series with Phytophthora infestans was 100%. Further, the LogP in series [1] is 4.88 [a].

The compound `CC(CC1CCCCC1)Nc1cccc(CO/N=C(/c2ccccc2)c2noc(=O)n2C)n1` (stereo not shown) [Example 236] returned an Eff. % in the series on Phytophthora infestans of 100%. In series [1], the LogP was 5.14 [a].

In the series on Phytophthora infestans, `Cn1c(/C(=N\OCc2cccc(NC(=O)CC(F)(F)F)n2)c2ccccc2)noc1=O` [Example 237] displayed an Eff. % of 97%. The LogP in series [1] is 3.19 [a].

In the series on Phytophthora infestans, `Cn1c(/C(=N\OCc2csc(NC(=O)OCc3ccccc3)n2)c2ccccc2)noc1=O` [Example 239] showed an Eff. % of 84%. The LogP in series [1] is 3.73 [a].

In the case of `Cn1c(/C(=N\OCc2cccc(NC(=O)c3ccccc3Br)n2)c2ccccc2)noc1=O` [Example 243], in the series with Phytophthora infestans, the Eff. % is 99%. The LogP in series [1] was 3.67 [a].

Take `Cn1c(C(=NOCc2cccc(NC(=O)OC(C)(C)C)n2)c2ccc(F)cc2)noc1=O` [Example 246]: the Eff. % in the series with Phytophthora infestans is listed as 100%. Besides, the LogP in series [1] was 4.06 [a].

Compound `Cn1c(C(=NOCc2cccc(NC(=O)CCCC(C)(C)C)n2)c2ccccc2)noc1=O` [Example 247] showed an Eff. % in the series on Phytophthora infestans of 99%. The LogP in series [1] is 4.53 [a].

The compound `Cn1c(C(=NOCc2csc(NC(=O)c3ccc(F)cc3)n2)c2ccccc2)noc1=O` [Example 251] showed an Eff. % in the series on Phytophthora infestans of 98%. Besides, the LogP in series [1] is 3.55 [a].

For `Cn1c(C(=NOCc2csc(NC(=O)c3ccccc3)n2)c2ccccc2)noc1=O` [Example 257], the Eff. % with Phytophthora infestans worked out at 100%. Besides, in series [1], the LogP is 3.44 [a].

On to `Cn1c(C(=NOCc2cccc(N(C(=O)OC(C)(C)C)C(=O)OC(C)(C)C)n2)c2cccc(F)c2)noc1=O` [Example 261], for which the Eff. % with Phytophthora infestans is 100%. Besides, in series [1], the LogP is 4.51 [a].

Turning to `Cn1c(C(=NOCc2csc(NC(=O)c3cc(F)cc(F)c3)n2)c2ccccc2)noc1=O` [Example 263], the Eff. % with Phytophthora infestans was 78%. Moreover, the lipophilicity (LogP) in series [1] is 3.8 [a].

On to `Cn1c(C(=NOCc2cccc(NC(=O)Cc3cccs3)n2)c2ccccc2)noc1=O` [Example 264], for which the Eff. % with Phytophthora infestans came to 94%. For the same compound, the LogP in series [1] was 3.42 [a].

`CCCC(=O)Nc1cccc(CON=C(c2ccccc2)c2noc(=O)n2C)n1` [Example 266]: in the series with Phytophthora infestans, the Eff. % stood at 100%. Besides, the LogP in series [1] is 3.13 [a].

In the case of `Cn1c(C(=NOCc2cccc(NC(=O)CCCC3CCCCC3)n2)c2ccccc2)noc1=O` [Example 267], the Eff. % in the series on Phytophthora infestans came to 97%. Moreover, the LogP in series [1] was 5.14 [a].

On to `CCCC(=O)Nc1nc(CON=C(c2ccccc2)c2noc(=O)n2C)cs1` [Example 271], for which the Eff. % with Phytophthora infestans came to 80%. In series [1], the LogP was 3.02 [a].

With `Cc1cccc(C(=NOCc2cccc(NC(=O)OCCc3ccccc3)n2)c2noc(=O)n2C)c1` [Example 272], in the series with Phytophthora infestans, the Eff. % was 88%. In addition, the LogP in series [1] was 4.49 [a].

`CCCCCC(C)OC(=O)Nc1cccc(CO/N=C(/c2ccccc2)c2noc(=O)n2C)n1` (stereo not shown) [Example 285] displayed an Eff. % with Phytophthora infestans of 88%. The LogP in series [1] was 5.19 [a].

In the series on Phytophthora infestans, `CC(C)COC(=O)Nc1nc(CO/N=C(/c2ccccc2)c2noc(=O)n2C)cs1` [Example 286] gave an Eff. % of 97%. Further, the LogP in series [1] is 3.71 [a].

In the series on Phytophthora infestans, `Cn1c(/C(=N\OCc2cccc(NC(=O)OCCC#N)n2)c2ccccc2)noc1=O` [Example 288] gave an Eff. % of 97%. Also, the LogP in series [1] is 2.78 [a].

`Cn1c(/C(=N\OCc2csc(NC(=O)c3cccc(Br)c3)n2)c2ccccc2)noc1=O` [Example 289] showed an Eff. % in the series with Phytophthora infestans of 98%. In addition, the log partition coefficient (LogP) in series [1] was 4.04 [a].

As to `COc1cccc(C(=NOCc2cccc(NC(=O)OCc3ccccc3)n2)c2noc(=O)n2C)c1` [Example 290], the Eff. % in the series with Phytophthora infestans is listed as 75%. Also, the LogP in series [1] was 4.04 [a].

In the case of `Cn1c(/C(=N\OCc2cccc(NC(=O)OCCc3ccccc3)n2)c2cccc(F)c2)noc1=O` [Example 297], in the series on Phytophthora infestans, the Eff. % was 95%. In addition, the LogP in series [1] was 4.26 [a].

Consider `CCCCCOC(=O)Nc1cccc(CO/N=C(/c2ccccc2)c2noc(=O)n2CC)n1` [Example 300], for which the Eff. % with Phytophthora infestans is 100%. Besides, the LogP in series [1] was 4.72 [a].

`Cn1c(/C(=N\OCc2cccc(NC(=O)CCc3ccc(F)cc3)n2)c2ccccc2)noc1=O` [Example 301] showed an Eff. % in the series with Phytophthora infestans of 100%. In series [1], the LogP is 3.81 [a].

`CCCCCCCCCC(=O)Nc1cccc(CO/N=C(/c2ccccc2)c2noc(=O)n2C)n1` [Example 303] returned an Eff. % in the series on Phytophthora infestans of 98%. Also, the LogP in series [1] is 5.54 [a].

In the series with Phytophthora infestans, `C=CC(=O)Nc1cccc(CO/N=C(/c2ccccc2)c2noc(=O)n2C)n1` [Example 304] showed an Eff. % of 83%. In series [1], the LogP was 2.77 [a].

On to `Cn1c(/C(=N\OCc2cccc(NC(=O)C3(F)CC3)n2)c2ccccc2)noc1=O` [Example 309], for which the Eff. % with Phytophthora infestans turned out to be 100%. In addition, in series [1], the LogP is 3.31 [a].

In the series with Phytophthora infestans, `COc1ccc(CCOC(=O)Nc2cccc(CO/N=C(/c3ccccc3)c3noc(=O)n3C)n2)cc1` [Example 310] displayed an Eff. % of 70%. Besides, the LogP in series [1] is 4.08 [a].

In the case of `Cn1c(/C(=N\OCc2cccc(NC(=O)COc3ccccc3)n2)c2ccccc2)noc1=O` [Example 313], the Eff. % in the series with Phytophthora infestans was 100%. For the same compound, in series [1], the LogP is 3.73 [a].

In the case of `Cn1c(/C(=N\OCc2cccc(NC(=O)C3CC4C=CC3C4)n2)c2ccccc2)noc1=O` (stereo not shown) [Example 323], in the series on Phytophthora infestans, the Eff. % is 100%. Further, the LogP in series [1] was 3.68 [a].

In turn, `CCCC(C)C(=O)Nc1cccc(CO/N=C(/c2cccc(OC)c2)c2noc(=O)n2C)n1` (stereo not shown) [Example 328] returned an Eff. % in the series with Phytophthora infestans of 75%. In addition, in series [1], the LogP was 3.87 [a].

As to `Cn1c(/C(=N\OCc2cccc(NC(=O)c3cccc(Oc4ccccc4)c3)n2)c2ccccc2)noc1=O` [Example 329], the Eff. % with Phytophthora infestans is 93%. Also, the LogP in series [1] is 4.61 [a].

Compound `Cn1c(/C(=N\OCc2cccc(NC(=O)c3ccccc3I)n2)c2ccccc2)noc1=O` [Example 331] had an Eff. % with Phytophthora infestans of 98%. In addition, in series [1], the LogP was 3.76 [a].

Regarding `Cn1c(/C(=N\OCc2cccc(NC(=O)Cc3ccccc3Br)n2)c2ccccc2)noc1=O` [Example 335], the Eff. % in the series with Phytophthora infestans is given as 99%. The LogP in series [1] is 3.85 [a].

`CCCC(C)COC(=O)Nc1cccc(CO/N=C(/c2ccccc2)c2noc(=O)n2C)n1` (stereo not shown) [Example 337]: the Eff. % in the series with Phytophthora infestans is listed as 99%. Moreover, in series [1], the LogP is 4.83 [a].

The compound `Cc1ccc(C(=O)Nc2cccc(CO/N=C(/c3ccccc3)c3noc(=O)n3C)n2)o1` [Example 345] registered an Eff. % in the series with Phytophthora infestans of 99%. In series [1], the LogP is 3.46 [a].

In turn, `Cn1c(/C(=N\OCc2cccc(NC(=O)CCc3ccc(Cl)cc3)n2)c2ccccc2)noc1=O` [Example 346] showed an Eff. % in the series on Phytophthora infestans of 97%. In addition, the LogP in series [1] was 4.17 [a].

Regarding `Cn1c(/C(=N\OCc2cccc(NC(=O)C(F)(F)C(F)(F)C(F)(F)F)n2)c2ccccc2)noc1=O` [Example 348], the Eff. % with Phytophthora infestans is reported as 100%. Also, the LogP in series [1] was 4.17 [a].

The compound `CCC(C)COC(=O)Nc1cccc(CO/N=C(/c2ccccc2)c2noc(=O)n2C)n1` (stereo not shown) [Example 350] showed an Eff. % in the series with Phytophthora infestans of 98%. Moreover, in series [1], the LogP was 4.44 [a].

Consider `Cn1c(/C(=N\OCc2cccc(NC(=O)c3ccc(Oc4ccccc4)cc3)n2)c2ccccc2)noc1=O` [Example 357], for which the Eff. % in the series with Phytophthora infestans was found to be 92%. For the same compound, the lipophilicity (LogP) in series [1] was 4.58 [a].

In the series with Phytophthora infestans, `CCCCC(=O)Nc1cccc(CO/N=C(/c2cccc(OC)c2)c2noc(=O)n2C)n1` [Example 358] yielded an Eff. % of 100%. The LogP in series [1] was 3.55 [a].

The compound `CCCCOC(=O)Nc1cccc(CO/N=C(/c2cccc(OC)c2)c2noc(=O)n2C)n1` [Example 361] returned an Eff. % with Phytophthora infestans of 90%. Also, in series [1], the LogP is 4.06 [a].

`COc1cccc(/C(=N/OCc2cccc(NC(=O)CC(C)C)n2)c2noc(=O)n2C)c1` [Example 362]: the Eff. % in the series on Phytophthora infestans is recorded as 71%. Moreover, the LogP in series [1] was 3.46 [a].

In the case of `C=CCCOC(=O)Nc1cccc(CO/N=C(/c2ccccc2)c2noc(=O)n2C)n1` [Example 363], the Eff. % in the series with Phytophthora infestans is 99%. Further, in series [1], the LogP is 3.71 [a].

Take `CC(=O)OC(C)(C)C(=O)Nc1cccc(CO/N=C(/c2ccccc2)c2noc(=O)n2C)n1` [Example 367]: in the series on Phytophthora infestans, the Eff. % was 100%. Moreover, the LogP in series [1] was 3.15 [a].

`Cc1ccc(CCOC(=O)Nc2cccc(CO/N=C(/c3ccccc3)c3noc(=O)n3C)n2)cc1` [Example 369] showed an Eff. % with Phytophthora infestans of 70%. Besides, the LogP in series [1] was 4.53 [a].

`Cn1c(/C(=N\OCc2cccc(NC(=O)OCC(C)(C)C)n2)c2ccccc2)noc1=O` [Example 372] gave an Eff. % with Phytophthora infestans of 100%. The LogP in series [1] is 4.36 [a].

In the case of `Cn1c(/C(=N\OCc2cccc(NC(=O)CCCCCBr)n2)c2ccccc2)noc1=O` [Example 374], in the series on Phytophthora infestans, the Eff. % worked out at 100%. Also, in series [1], the LogP was 3.85 [a].

`Cc1ccc(CC(=O)Nc2cccc(CO/N=C(/c3ccccc3)c3noc(=O)n3C)n2)cc1` [Example 375] yielded an Eff. % in the series with Phytophthora infestans of 97%. The LogP in series [1] was 3.85 [a].

`Cn1c(/C(=N\OCc2cccc(NC(=O)CCCc3ccccc3)n2)c2ccccc2)noc1=O` [Example 377] showed an Eff. % with Phytophthora infestans of 99%. In addition, in series [1], the LogP is 4.04 [a].
